Source: ChEMBL document CHEMBL1806439, “Synthesis and antihistamine evaluations of novel loratadine analogues” (2011)

Tests used:
[1] = target: Histamine H1 receptor (Cavia porcellus) (UniProt P31389); experiment: Inhibition of histamine H1 receptor in guinea pig ileum assessed as inhibition of histamine-induced muscle spasms at 2 x 10 '-3 mg/ml after 5 mins (reference value: 0.31 %); assay type: tissue-based
Cavia porcellus [2] = experiment: Antiasthmatic activity in guinea pig assessed as inhibition of histamine phosphate solution-induced asthmatic reaction measured as increase in asthmogenic latency period at 0.2 mg/kg administered as intragastric (reference value: 95.50 +/- 18.98 sec); assay type: functional
Cavia porcellus [3] = experiment: Antiasthmatic activity in guinea pig assessed as inhibition of histamine phosphate solution-induced asthmatic reaction measured as increase in asthmogenic latency period at 0.5 mg/kg administered as intragastric (reference value: 99.30 +/- 30.06 sec); assay type: functional

Sequence of Histamine H1 receptor (Cavia porcellus) (P31389 whole entry): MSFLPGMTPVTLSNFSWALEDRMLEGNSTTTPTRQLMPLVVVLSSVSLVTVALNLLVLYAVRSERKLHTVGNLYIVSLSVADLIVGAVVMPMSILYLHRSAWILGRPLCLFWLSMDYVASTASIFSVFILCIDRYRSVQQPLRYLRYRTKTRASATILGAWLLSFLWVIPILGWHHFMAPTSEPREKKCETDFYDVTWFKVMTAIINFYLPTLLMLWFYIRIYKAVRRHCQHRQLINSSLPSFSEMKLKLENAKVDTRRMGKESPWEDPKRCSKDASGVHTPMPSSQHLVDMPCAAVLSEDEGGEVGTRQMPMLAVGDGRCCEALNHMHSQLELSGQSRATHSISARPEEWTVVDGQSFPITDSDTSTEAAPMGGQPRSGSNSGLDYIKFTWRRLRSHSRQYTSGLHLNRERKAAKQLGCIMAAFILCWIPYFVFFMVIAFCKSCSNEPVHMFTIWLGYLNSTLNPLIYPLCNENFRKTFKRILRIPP

Row | Structure (SMILES) | inhibition [1] | Time (Cavia porcellus [2]) | Time (Cavia porcellus [3])
1 | C[C@@H](CO)N1CCC(=C2c3ccc(Cl)cc3CCc3cccnc32)CC1 | 49.7% | 112.8 s | 209.7 s
2 | CC[C@@H](CO)N1CCC(=C2c3ccc(Cl)cc3CCc3cccnc32)CC1 | 53.5% | 123.1 s | 216 s
3 | C[C@H](CO)N1CCC(=C2c3ccc(Cl)cc3CCc3cccnc32)CC1 | 32.4% | 111.1 s | 215.6 s
4 | C[C@@H](c1ccccc1)N1CCC(=C2c3ccc(Cl)cc3CCc3cccnc32)CC1 | 32.1% | 170.2 s | 273.2 s
5 | C[C@H](c1ccccc1)N1CCC(=C2c3ccc(Cl)cc3CCc3cccnc32)CC1 | 31.4% | 210.6 s | 309.6 s
6 | OCCN1CCC(=C2c3ccc(Cl)cc3CCc3cccnc32)CC1 | 50.6% | 133.3 s | 248.5 s
7 | OCCCN1CCC(=C2c3ccc(Cl)cc3CCc3cccnc32)CC1 | 53.7% | 360 s | 360 s
8 | CN(C)CCC(c1ccc(Cl)cc1)c1ccccn1 (configuration not stated) [CHLORPHENIRAMINE] | 41.3% | 105.7 s | 214.7 s
9 | CC[C@H](CO)N1CCC(=C2c3ccc(Cl)cc3CCc3cccnc32)CC1 | 29.4% | 125.3 s | 229.2 s
